Our source for the IC50 and melting point values is US7501440B2, “Substituted benzoylureidopyridylpiperidine-and-pyrrolidinecarboxylic acid derivatives, processes for preparing them and their use” (Sanofi-Aventis Deutschland GmbH, priority 2003, dated 2009).

SMILES strings stand for the structures.

Data set [1] concerns the target T1, human glycogen phosphorylase a (Homo sapiens, UniProt P06737).
T1 sequence (P06737 1-847): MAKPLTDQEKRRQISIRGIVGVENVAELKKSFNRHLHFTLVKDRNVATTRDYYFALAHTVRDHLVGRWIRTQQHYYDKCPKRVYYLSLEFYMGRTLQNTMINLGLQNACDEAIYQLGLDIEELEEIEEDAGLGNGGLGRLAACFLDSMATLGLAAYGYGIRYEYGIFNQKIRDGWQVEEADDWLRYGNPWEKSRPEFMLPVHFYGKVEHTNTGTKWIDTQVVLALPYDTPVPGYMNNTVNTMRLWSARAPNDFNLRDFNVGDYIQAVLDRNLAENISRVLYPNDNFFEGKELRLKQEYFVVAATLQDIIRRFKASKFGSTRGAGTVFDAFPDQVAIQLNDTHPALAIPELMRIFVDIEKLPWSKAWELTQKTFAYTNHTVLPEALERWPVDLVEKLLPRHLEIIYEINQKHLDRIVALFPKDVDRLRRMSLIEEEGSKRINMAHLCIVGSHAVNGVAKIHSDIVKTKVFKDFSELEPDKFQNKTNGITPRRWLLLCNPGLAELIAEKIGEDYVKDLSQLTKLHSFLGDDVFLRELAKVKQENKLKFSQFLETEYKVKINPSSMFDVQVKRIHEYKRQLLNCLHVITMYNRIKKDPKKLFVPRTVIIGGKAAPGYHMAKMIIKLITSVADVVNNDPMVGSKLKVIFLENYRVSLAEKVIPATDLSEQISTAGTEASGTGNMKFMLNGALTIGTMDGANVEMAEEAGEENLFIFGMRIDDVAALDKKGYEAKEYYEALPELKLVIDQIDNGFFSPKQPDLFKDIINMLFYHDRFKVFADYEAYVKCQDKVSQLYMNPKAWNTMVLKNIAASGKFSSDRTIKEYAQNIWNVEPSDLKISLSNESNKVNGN
In words: Glycogen phosphorylase a activity test. The class given is biochemical. As to conditions: inhibition of GPa in vitro, reverse direction (glycogen synthesis from glucose 1-phosphate, release of inorganic phosphate). The procedure:
Glycogen Phosphorylase a Activity Test
The effect of compounds on the activity of the active form of glycogen phosphorylase (GPa) was measured in the reverse direction by monitoring the synthesis of glycogen from glucose 1-phosphate by determining the release of inorganic phosphate. All reactions were carried out as duplicate determinations in 96-well microtiter plates (half area plates, Costar No. 3696), and the change in absorption as a consequence of the formation of the reaction product was measured at the wavelength specified below in a Multiskan Ascent Elisa Reader (Lab Systems, Finland). In order to measure the GPa enzyme activity in the reverse direction, the conversion of glucose 1-phosphate to glycogen and inorganic phosphate was measured by the general method of Engers et al. (Engers H D, Shechosky S, Madsen N B, Can J Biochem 1970 July; 48(7):746-754) with the following modifications: human glycogen phosphorylase a (for example containing 0.76 mg of protein/ml (Aventis Pharma Deutschland GmbH), dissolved in buffer solution E (25 mM β-glycerophosphate, pH 7.0, 1 mM EDTA and 1 mM dithiothreitol) was diluted to a concentration of 10 μg of protein/ml with buffer T (50 mM Hepes, pH 7.0, 100 mM KCI, 2.5 mM EDTA, 2.5 mM MgCl2·6H2O) and addition of 5 mg/ml of glycogen. Test substances were prepared as a 10 mM solution in DMSO and diluted to 50 μM with buffer solution T. To 10 μl of this solution were added 10 μl of 37.5 mM glucose dissolved in buffer solution T and 5 mg/ml of glycogen, and also 10 μl of a solution of human glycogen phosphorylase a (10 μg of protein/ml) and 20 μl of 2.5 mM glucose 1-phosphate. The base value of the activity of glycogen phosphorylase a in the absence of test substance was determined by adding 10 μl of buffer solution T (0.1% DMSO). The mixture was incubated at room temperature for 40 minutes and the released inorganic phosphate was determined by means of the general method of Drueckes et al. (Drueckes P, Schinzel R, Palm D, Anal Biochem 1995 September 1;230(1):173-177) with the following modifications: 50 μl of a stop solution of 7.3 mM of ammonium molybdate, 10.9 mM of zinc acetate, 3.6% of ascorbic acid, 0.9% of SDS are added to 50 μl of the enzyme mixture. After 60 minutes of incubation at 45° C., the absorption was measured at 820 nm. To determine the background absorption, the stop solution was added immediately after the addition of the glucose 1-phosphate solution in a separate reaction. […]

Consider `O=C(NC(=O)c1ccc(F)cc1Cl)Nc1cccnc1N1CCC(C(=O)O)CC1` [Example 1, 3′-[3-(2-Chloro-4-fluorobenzoyl)ureido]-3,4,5,6-tetrahydro-2H-[1,2′]bipyridinyl-4-carboxylic acid], for which half-maximal inhibition in data set [1] (IC50) required 40 nM.
In the case of `O=C(NC(=O)c1cc(F)c(F)cc1Cl)Nc1cccnc1N1CCC(C(=O)O)CC1` [Example 2, 3+-[3-(2-Chloro-4,5-difluorobenzoyl)ureido]-3,4,5,6-tetrahydro-2H-[1,2′]bipyridinyl-4-carboxylic acid], inhibition in data set [1] was half-maximal at 10 nM (IC50).
As to `COC(=O)C1CCN(c2ncccc2NC(=O)NC(=O)c2cc(F)c(F)cc2Cl)CC1` [Example 3, Methyl 3′-[3-(2-chloro-4,5-difluorobenzoyl)ureido]-3,4,5,6-tetrahydro-2H-[1,2′]bipyridinyl-4-carboxylate], the melting point – broadly, the temperature of the solid-liquid transition – came out at 195.9 °C.
With `NC(=O)C1CCN(c2ncccc2NC(=O)NC(=O)c2cc(F)c(F)cc2Cl)CC1` [Example 4, 3′-[3-(2-Chloro-4,5-difluorobenzoyl)ureido]-3,4,5,6-tetrahydro-2H-[1,2′]bipyridinyl-4-carboxamide], the half-maximal inhibitory concentration (IC50) – broadly, the concentration needed to halve the response being measured – in data set [1] amounted to 160 nM.
Same read-out and setting: for `O=C(NC(=O)c1cc(F)c(F)cc1Cl)Nc1cccnc1N1CCC(C(=O)NCCO)CC1` [Example 5, N-(2-hydroxyethyl)-3′-[3-(2-chloro-4,5-difluorobenzoyl)ureido]-3,4,5,6-tetrahydro-2H-[1,2′]bipyridinyl-4-carboxamide] the value was 3650 nM.
In turn, `O=C(NC(=O)c1cc(F)c(F)cc1Cl)Nc1cccnc1N1CCC(C(=O)O)(c2ccccc2)CC1` [Example 6, 3′-[3-(2-Chloro-4,5-difluorobenzoyl)ureido]-4-phenyl-3,4,5,6-tetrahydro-2H-[1,2′]bipyridinyl-4-carboxylic acid] returned a melting point of 250.9 °C.
